Earlier results as cited in patent US11147800B2 (Race Oncology Ltd., priority 2013, dated 2021).
Structures can show the parent of a compound that is named as a salt. Each block holds one molecule with its values, some of them ahead of it.

Tests used:
[1] = local injection
[2] = tested on: telomerase-expressing cells and ALT-positive cell lines
[3] = tested on: colon 26, Lewis lung, Ridgway osteosarcoma, B16, Lieberman plasma cell, P388 or L1210 cancer cells
L1210 leukemia cells = settings: typical of inhibition of DNA topoisomerase II
[4] = not given; remark: listed apart in the source
[5] = tested on: hepatic microsomal enzymes; settings: in vitro
[6] = preclinical
[7] = not given; remark: listed apart in the source
[8] = not given; remark: listed apart in the source
[9] = not given; remark: listed apart in the source
[10] = molecular target: glycogen synthase kinase-3β (GSK-3β) (Homo sapiens, UniProt P49841)
Chain of glycogen synthase kinase-3β (GSK-3β) (P49841 whole entry, species assumed): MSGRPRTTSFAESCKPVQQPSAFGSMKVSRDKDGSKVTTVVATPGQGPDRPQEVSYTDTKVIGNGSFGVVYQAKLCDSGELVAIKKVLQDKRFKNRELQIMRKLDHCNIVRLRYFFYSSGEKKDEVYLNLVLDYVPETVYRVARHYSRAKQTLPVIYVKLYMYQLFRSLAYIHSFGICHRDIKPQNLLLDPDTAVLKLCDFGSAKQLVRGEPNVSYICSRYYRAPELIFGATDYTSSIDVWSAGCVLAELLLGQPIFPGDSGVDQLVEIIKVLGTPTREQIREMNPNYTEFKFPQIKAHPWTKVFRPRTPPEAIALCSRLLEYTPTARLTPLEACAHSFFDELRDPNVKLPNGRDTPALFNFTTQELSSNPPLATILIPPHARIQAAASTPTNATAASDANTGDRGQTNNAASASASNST

[11] = single dose study, the last study
[12] = single dose study, triphasic elimination, second study

SMILES: O=C([O-])O.[Na+] [sodium bicarbonate]
bisantrene extravasation necrosis [1]: blocked

SMILES: C(=N\NC1=NCCN1)/c1cccc2cc3c(/C=N/NC4=NCCN4)cccc3cc12 [Formula (III)]
DNA damage response (γH2AX foci partially co-localized at the telomere) [2]: consistently provokes a DNA damage response

SMILES: C(=NNC1=NCCN1)c1c2ccccc2c(C=NNC2=NCCN2)c2ccccc12 [bisantrene, 9,10-anthracenedicarboxaldehyde bis[(4,5-dihydro-1H-imidazol-2-yl)hydrazine] dihydrochloride]
minimal effective in vivo dose for macrophage activation (macrophages): 25 mg/kg
antitumor activity in murine tumor models ([3]; P-388 leukemia and B-16 melanoma): antitumor activity
activity in cancer models, parenteral ([3]; i.v., i.p. or s.c., colon 26, Lewis lung, Ridgway osteosarcoma, B16, Lieberman plasma cell, P388 or L1210): effective
activity in cancer models, oral ([3]; orally): inactive
cross resistance with adriamycin and mitoxantrone (Human tumor cells): lack of cross resistance
sensitivity in in vitro colony-forming assays (Human tumor cells; breast, ovarian, renal, small cell and non-small cell lung, lymphoma, AML, melanoma, gastric, adrenal, head and neck cancer): sensitive
activity in metastatic breast cancer (Phase II, heavily pretreated patients): active
activity in phase I clinical trials (hepatocellular cancer and hypernephroma (one patient each), lymphoma, myeloma, melanoma, renal cancer, bladder and lung tumors): showed activity
activity in refractory malignant melanoma (phase II): inactive
activity in human colon cancer (tested in vitro or in vivo (phase II advanced colorectal cancer)): inactive
DNA strand breaks (L1210 leukemia cells): induce protein-associated DNA strand breaks
urinary excretion of the dose ([4]; 72-hr infusion study, in 24 hr): 4.6%
triphasic elimination, first phase (given as clearances) [4, 11]: 0.1 h
triphasic elimination, second phase (given as clearances) [4, 11]: 1.9 h
triphasic elimination, third phase (given as clearances) [4, 11]: 43.9 h
t½α [4, 12]: 3 min
t½β [4, 12]: 1 h
t½γ [4, 12]: 8 h
substrate for hepatic microsomal enzymes [5]: substrate
Brain levels [6]: extremely low
tissues with the highest concentration (in descending order) [6]: kidney, liver, gallbladder, spleen, lung, and heart
major dose-limiting toxic effect ([7]; in vivo): leukopenia
DLT ([7]; phase I doses between 190-430 mg/m^2 q3w): neutropenia
local tissue toxicity if extravasated ([8]; human, in vivo): potent vesicant
patients reporting malaise ([8]; human, in vivo): up to one-half of patients
cardiotoxicity compared with mitoxantrone or doxorubicin ([8]; phase III trial): less cardiotoxic
cardiotoxicity in animals ([9]; animals): not cardiotoxic
toxic findings ([9]; dogs and monkeys, high doses): leukopenia, anorexia, diarrhea, injection site necrosis, enterocolitis, muscle degeneration, and pulmonary edema
platelet aggregation (Human Platelets): inhibit platelet aggregation

concentration for inhibition of GSK-3β [10]: 5 to 50 nM
SMILES: CN1C(=O)/C(=C2/C(=O)Nc3ccccc32)c2ccccc21 [meisoindigo]
